Activity, IC50 and EC50 data for 27 molecules are collected here from ChEMBL document CHEMBL1138209, “Scaffold of the cyclooxygenase-2 (COX-2) inhibitor carprofen provides Alzheimer gamma-secretase modulators” (J Med Chem, 2006).

As a reminder, the IC50 is the concentration at which inhibition is half-maximal. The low end stands for inhibition by little substance, the high end for a need for much substance. Usually EC50 stands for the concentration that produces a half-maximal response.

Calls of active or inactive are those of the source. The rule behind the calls is not given here.

Data set [1] has as its system H4. Description: Increase in beta amyloid protein 38 in human H4 cells overexpressing APP695 at 40 uM. In kind it is cell-based.
Data set [2] in a line: Inhibition of beta amyloid protein 42 in human H4 cells overexpressing APP695. The data set is classed as cell-based.
Data set [3] in a line: Inhibition of beta amyloid protein 40 in human H4 cells overexpressing APP695. In kind it is cell-based.
The subject of data set [4] is H4. Description: Increase in beta amyloid protein 38 in human H4 cells overexpressing APP695 at 200 uM. In kind it is cell-based.
In data set [5] the test system is H4. Kind of data set: Increase in beta amyloid protein 38 in human H4 cells overexpressing APP695 at 150 uM. The data set is classed as cell-based.
Data set [6] deals with H4. Kind of data set: Cytotoxicity against human H4 cells at 40 uM. The data set is classed as cell-based. The settings on record: h4, 40 µM.
A short description of data set [7]: Inhibition of beta amyloid protein 38 in human H4 cells overexpressing APP695. The data set is classed as cell-based.
For data set [8], the system named is H4. Kind of data set: Increase in beta amyloid protein 38 in human H4 cells overexpressing APP695 at 160 uM. In kind it is cell-based.
Data set [9] has as its target Prostaglandin G/H synthase 1 (Homo sapiens) (UniProt P23219). Description: Activity at COX1 at 10 uM.

Sequence of Prostaglandin G/H synthase 1 (Homo sapiens) (P23219 whole entry): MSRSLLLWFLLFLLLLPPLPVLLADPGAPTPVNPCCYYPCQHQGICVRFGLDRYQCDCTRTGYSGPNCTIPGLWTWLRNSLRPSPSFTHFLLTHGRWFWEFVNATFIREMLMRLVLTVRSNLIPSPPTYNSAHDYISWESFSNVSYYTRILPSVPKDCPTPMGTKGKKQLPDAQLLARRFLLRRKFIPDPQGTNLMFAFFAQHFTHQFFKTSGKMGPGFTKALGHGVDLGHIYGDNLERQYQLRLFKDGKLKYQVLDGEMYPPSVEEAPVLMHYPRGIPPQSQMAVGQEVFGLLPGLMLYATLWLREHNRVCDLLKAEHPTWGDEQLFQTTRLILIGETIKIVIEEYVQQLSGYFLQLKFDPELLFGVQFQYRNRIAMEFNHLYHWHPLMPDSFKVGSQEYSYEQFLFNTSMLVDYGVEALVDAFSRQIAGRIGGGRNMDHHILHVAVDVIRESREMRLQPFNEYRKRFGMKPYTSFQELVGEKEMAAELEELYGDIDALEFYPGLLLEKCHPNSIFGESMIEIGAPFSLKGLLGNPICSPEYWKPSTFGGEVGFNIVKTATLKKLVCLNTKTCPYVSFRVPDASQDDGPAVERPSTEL

Take `CC(C(=O)O)c1ccc2c3cc(Cl)ccc3n(S(=O)(=O)c3cc(Br)c(Br)s3)c2c1` (configuration not stated): the outcome with H4 [1] was inactive. This molecule also had an IC50 in data set [2] above 40 µM.

For `CC(C(=O)O)c1ccc2c3cc(Cl)ccc3n(S(=O)(=O)c3ccc(Cl)cc3)c2c1` (configuration not stated), the result with H4 [1] was inactive. Further, the IC50 in [2] is above 40 µM.

As for `CCCCCCCCS(=O)(=O)n1c2ccc(Cl)cc2c2ccc(C(C)C(=O)O)cc21` (configuration not stated), the result in the data set with H4 [1] was inactive. Further, the IC50 in data set [2] is 25 µM; in data set [3] it was above 40 µM.

With `CC(C(=O)O)c1ccc2c3cc(Cl)ccc3n(S(=O)(=O)c3ccccc3)c2c1` (configuration not stated), the result in the data set on H4 [1] was inactive. In addition, the IC50 in data set [2] was above 40 µM.

For `CC(C(=O)O)c1ccc2c3cc(Cl)ccc3n(S(=O)(=O)c3cc(C(F)(F)F)cc(C(F)(F)F)c3)c2c1` (configuration not stated), in the data set on H4 [4], the outcome was inactive. For the same molecule, the 50% inhibitory concentration (IC50) in [2] is 11 µM; in data set [3] it was above 30 µM.

In the case of `CC(C(=O)O)c1ccc2c3cc(Cl)ccc3n(Cc3cccc(NC(=O)CCCC[C@@H]4SC[C@@H]5NC(=O)N[C@@H]54)c3)c2c1` (some centres not stated), the result in the data set on H4 [5] was inactive. For the same molecule, the Activity entry in the data set with H4 [6] is recorded as “Toxic”. The IC50 in [2] was 88 µM; in [3], above 150 µM.

On to `COc1cccc(Cn2c3ccc(Cl)cc3c3ccc(C(C)C(=O)O)cc32)c1` (configuration not stated), for which the result in the data set on H4 [1] was inactive. Besides, the IC50 in [2] is 39 µM; in data set [3], above 40 µM.

As for `CC(C(=O)O)c1ccc2c3cc(Cl)ccc3n(S(=O)(=O)c3ccc(Br)cc3)c2c1` (configuration not stated), in the data set on H4 [1], the outcome was inactive. Moreover, the IC50 in data set [2] was above 40 µM.

Turning to `CC(C)c1cc(C(C)C)c(S(=O)(=O)n2c3ccc(Cl)cc3c3ccc(C(C)C(=O)O)cc32)c(C(C)C)c1` (configuration not stated), in the data set with H4 [6], the Activity result was “Toxic”. In [7], this molecule showed an EC50 of 9.3 µM. For the same molecule, the IC50 in [2] is 8.5 µM; in [3], above 20 µM.

For `CC(C(=O)O)c1ccc2c3cc(Cl)ccc3n(S(=O)(=O)c3ccc(C#N)cc3)c2c1` (configuration not stated), in the data set with H4 [1], the result was inactive. In [2], this molecule had an IC50 above 40 µM.

As to `CC(C(=O)O)c1ccc2c3cc(Cl)ccc3n(S(=O)(=O)c3ccc(-c4ccccc4)cc3)c2c1` (configuration not stated), the result in the data set with H4 [1] was inactive. Besides, half-maximal inhibition in data set [2] (IC50) required 37 µM.

Take `CC(C(=O)O)c1ccc2c3cc(Cl)ccc3n(S(=O)(=O)c3ccccc3Br)c2c1` (configuration not stated): the result in the data set with H4 [1] was inactive. In addition, in data set [2], inhibition was half-maximal at 40 µM (IC50).

For the molecule `CC(C(=O)O)c1ccc2c3cc(Cl)ccc3n(Cc3cccc(OC(F)(F)F)c3)c2c1` (configuration not stated), the outcome in the data set on H4 [1] was inactive. The IC50 in data set [2] was 7.5 µM; in data set [3] it was above 40 µM.

With `CC(C(=O)O)c1ccc2c3cc(Cl)ccc3n(S(=O)(=O)c3ccc(F)cc3)c2c1` (configuration not stated), in the data set with H4 [1], the outcome was inactive. Further, the IC50 in [2] is above 40 µM.

Regarding `CC(C(=O)O)c1ccc2c3cc(Cl)ccc3n(S(=O)(=O)c3cccc([N+](=O)[O-])c3)c2c1` (configuration not stated), the result in the data set on H4 [1] was inactive. This molecule also registered an IC50 in data set [2] of 39 µM.

Consider `CCCCCCCCn1c2ccc(Cl)cc2c2ccc(C(C)C(=O)O)cc21` (configuration not stated), for which, in the data set with H4 [1], the outcome was inactive. Moreover, the figures for the IC50 in [2] and in [3] were 6.9 µM and above 40 µM, respectively.

Consider `Cc1ccc(S(=O)(=O)n2c3ccc(Cl)cc3c3ccc(C(C)C(=O)O)cc32)cc1` (configuration not stated), for which the result with H4 [4] was inactive. The EC50 in [7] worked out at 43 µM. Also, the IC50 is 56 µM in data set [2] and above 100 µM in data set [3].

In the case of `CC(C(=O)O)c1ccc2c3cc(Cl)ccc3n(S(=O)(=O)c3cc(F)cc(F)c3)c2c1` (configuration not stated), the outcome in the data set on H4 [1] was inactive. In [2], this molecule came in with an IC50 above 40 µM.

On to `CC(C(=O)O)c1ccc2c3cc(Cl)ccc3n(Cc3cccc([N+](=O)[O-])c3)c2c1` (configuration not stated), for which the outcome with H4 [1] was inactive. Moreover, the values for the IC50 in data set [2] and in [3] were 22 µM and above 40 µM, respectively.

As for `CCCCCCCCCn1c2ccc(Cl)cc2c2ccc(C(C)C(=O)O)cc21` (configuration not stated), a half-maximal effect in data set [7] (EC50) was put at 8.1 µM. In addition, the IC50 in [2] is 3 µM; in data set [3], above 40 µM.

With `CC(C(=O)O)c1ccc2c3cc(Cl)ccc3n(S(=O)(=O)c3cccc(F)c3)c2c1` (configuration not stated), the outcome with H4 [1] was inactive. Further, the IC50 in data set [2] was above 40 µM.

For the molecule `CC(C(=O)O)c1ccc2c3cc(Cl)ccc3n(S(=O)(=O)c3ccc([N+](=O)[O-])cc3)c2c1` (configuration not stated), in the data set on H4 [1], the outcome was inactive. Also, the IC50 in data set [2] was above 40 µM.

For `CC(C(=O)O)c1ccc2c(c1)[nH]c1ccc(Cl)cc12` (racemic) [CARPROFEN], the result in the data set with H4 [8] was inactive. Also, the IC50 turned out to be 78 µM in [7], 76 µM in data set [2] and 133 µM in data set [3].

Take `CCCCCCCCCCn1c2ccc(Cl)cc2c2ccc(C(C)C(=O)O)cc21` (configuration not stated): the EC50 in [7] is 5.8 µM. Moreover, the IC50 is 2.9 µM in data set [2] and above 40 µM in data set [3]. Further, the result in data set [9] was inactive.

Regarding `CC(C(=O)O)c1ccc2c3cc(Cl)ccc3n(S(=O)(=O)c3ccccc3F)c2c1` (configuration not stated), the result with H4 [1] was inactive. The molecule further had a half-maximal inhibitory concentration (IC50) in data set [2] above 40 µM.

With `CC(C(=O)O)c1ccc2c3cc(Cl)ccc3n(S(=O)(=O)c3cccc(Cl)c3)c2c1` (configuration not stated), the outcome in the data set on H4 [1] was inactive. This molecule returned an IC50 in [2] above 40 µM.

As for `CCCc1ccc(S(=O)(=O)n2c3ccc(Cl)cc3c3ccc(C(C)C(=O)O)cc32)cc1` (configuration not stated), the result with H4 [1] was inactive. Also, the IC50 in [2] and in data set [3] was above 40 µM throughout.
